From article PMC2788200 (Nutrition Research and Practice, 2008)

Target: T1, 10-formyltetrahydrofolate dehydrogenase (FDH) (Rattus norvegicus, UniProt P28037)
T1 sequence (P28037 1-902): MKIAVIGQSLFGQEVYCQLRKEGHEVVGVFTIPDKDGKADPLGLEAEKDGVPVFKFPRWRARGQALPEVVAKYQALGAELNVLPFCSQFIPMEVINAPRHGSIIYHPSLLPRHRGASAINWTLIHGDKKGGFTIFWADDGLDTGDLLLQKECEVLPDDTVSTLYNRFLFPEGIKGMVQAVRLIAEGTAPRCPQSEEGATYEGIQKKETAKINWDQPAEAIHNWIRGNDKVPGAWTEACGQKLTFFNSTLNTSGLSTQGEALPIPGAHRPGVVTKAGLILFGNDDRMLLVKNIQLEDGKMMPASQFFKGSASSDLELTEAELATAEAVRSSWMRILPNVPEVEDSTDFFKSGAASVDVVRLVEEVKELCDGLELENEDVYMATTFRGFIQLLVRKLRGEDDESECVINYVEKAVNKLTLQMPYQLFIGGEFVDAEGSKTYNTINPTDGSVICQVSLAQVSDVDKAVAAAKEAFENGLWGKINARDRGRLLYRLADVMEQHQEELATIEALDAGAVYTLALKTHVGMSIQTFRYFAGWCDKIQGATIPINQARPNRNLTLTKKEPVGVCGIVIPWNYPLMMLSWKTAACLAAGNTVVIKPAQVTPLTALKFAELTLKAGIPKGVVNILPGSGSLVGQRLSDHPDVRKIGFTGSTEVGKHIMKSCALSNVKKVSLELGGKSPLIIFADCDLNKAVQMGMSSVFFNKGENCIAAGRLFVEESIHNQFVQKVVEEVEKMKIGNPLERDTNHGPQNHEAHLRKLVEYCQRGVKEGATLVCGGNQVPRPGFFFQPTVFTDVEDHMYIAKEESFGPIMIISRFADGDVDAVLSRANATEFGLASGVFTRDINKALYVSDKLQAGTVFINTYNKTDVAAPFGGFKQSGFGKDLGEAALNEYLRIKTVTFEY
Test: THF formation at […] nm with NADP+, hydrolytic rate subtracted
Assay type: biochemical

IC50: 4 mM
Structure (SMILES): CC=O [acetaldehyde]
